In general, IC50 refers to the point on the concentration scale where inhibition reaches its midpoint.

We go through eight compounds from ChEMBL document CHEMBL5465560, “Selectivity Literature for EUbOPEN Chemogenomic Library” (2024).

Experiment [1] has as its target Cyclin-dependent kinase 2/cyclin E (Homo sapiens, UniProt P24941). The experiment is described as follows: Selectivity interaction (Enzyme panel (AstraZeneca, AlphaScreen, functional assay)) EUB0000621a CDK2. The format is protein-complex assay.
In experiment [2] the target is Phosphatidylinositol 4,5-bisphosphate 3-kinase catalytic subunit gamma isoform (Homo sapiens) (UniProt P48736). Kind of experiment: Selectivity interaction (KinomeScan (DiscoverX)) EUB0000666a PIK3CG. As to conditions: at 10 µM.
The target in experiment [3] is Fibroblast growth factor receptor 2 (Homo sapiens) (UniProt P21802). Kind of experiment: Selectivity interaction (Kinase panel (DSF assay)) EUB0001558a FGFR2. Background: In DSF a fluorescence change marks the thermal transition of the protein.
The target of experiment [4] is T1, Serine/threonine-protein kinase Nek1 (Homo sapiens) (UniProt Q96PY6).
T1 sequence (whole entry): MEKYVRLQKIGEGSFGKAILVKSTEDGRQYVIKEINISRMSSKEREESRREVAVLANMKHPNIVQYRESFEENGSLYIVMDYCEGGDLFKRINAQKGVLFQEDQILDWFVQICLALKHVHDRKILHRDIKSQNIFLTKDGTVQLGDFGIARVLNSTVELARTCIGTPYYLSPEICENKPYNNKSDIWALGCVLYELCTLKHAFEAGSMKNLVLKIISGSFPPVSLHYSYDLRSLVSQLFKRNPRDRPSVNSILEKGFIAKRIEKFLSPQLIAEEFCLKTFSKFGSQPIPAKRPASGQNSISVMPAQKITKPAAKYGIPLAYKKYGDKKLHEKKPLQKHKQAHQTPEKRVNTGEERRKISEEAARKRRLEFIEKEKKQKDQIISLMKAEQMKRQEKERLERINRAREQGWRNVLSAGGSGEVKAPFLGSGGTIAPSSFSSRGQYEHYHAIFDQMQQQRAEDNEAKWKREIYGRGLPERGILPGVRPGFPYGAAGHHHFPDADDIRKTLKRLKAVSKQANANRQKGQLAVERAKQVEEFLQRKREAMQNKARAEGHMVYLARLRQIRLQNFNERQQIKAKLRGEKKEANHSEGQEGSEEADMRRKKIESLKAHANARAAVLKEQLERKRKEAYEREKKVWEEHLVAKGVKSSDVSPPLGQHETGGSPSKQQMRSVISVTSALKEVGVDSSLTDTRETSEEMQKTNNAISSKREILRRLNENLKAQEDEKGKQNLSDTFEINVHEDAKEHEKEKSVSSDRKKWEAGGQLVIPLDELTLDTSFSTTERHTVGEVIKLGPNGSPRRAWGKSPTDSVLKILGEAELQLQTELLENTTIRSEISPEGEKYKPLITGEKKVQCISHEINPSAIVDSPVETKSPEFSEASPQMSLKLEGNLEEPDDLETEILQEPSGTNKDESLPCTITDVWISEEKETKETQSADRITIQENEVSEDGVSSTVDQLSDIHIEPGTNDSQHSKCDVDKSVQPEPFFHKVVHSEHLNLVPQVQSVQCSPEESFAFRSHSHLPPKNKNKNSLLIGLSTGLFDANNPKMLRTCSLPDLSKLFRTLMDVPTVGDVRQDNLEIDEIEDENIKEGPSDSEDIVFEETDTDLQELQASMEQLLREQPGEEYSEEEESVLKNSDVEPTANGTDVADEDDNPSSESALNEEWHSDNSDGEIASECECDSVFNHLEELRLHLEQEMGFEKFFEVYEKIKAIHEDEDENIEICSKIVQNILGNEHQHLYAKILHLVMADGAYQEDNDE
Kind of experiment: Selectivity interaction (ActivX KiNativ screen (ex vivo kinase selectivity in human PBMCs)) EUB0001619a NEK1. Type of experiment: cell-based. The settings on record: PBMC, at 1 µM.

Experiment [5] relates to Leucine-rich repeat serine/threonine-protein kinase 2 (Homo sapiens), Q5S007 [G2019S]. Kind of experiment: (§1) Selectivity interaction (KinomeScan (DiscoverX)) EUB0001049a LRRK2. As to conditions: at 1 µM.
The target in experiment [6] is Leucine-rich repeat serine/threonine-protein kinase 2 (Homo sapiens, UniProt Q5S007). The description is as §1. The settings on record: at 1 µM.
In experiment [7] the target is Non-receptor tyrosine-protein kinase TYK2 (Homo sapiens, UniProt P29597). Kind of experiment: Selectivity interaction (ProQinase) EUB0000171b TYK2.
Experiment [8] relates to Tyrosine-protein kinase ABL1 (Homo sapiens), P00519 [F317I]. The experiment is described as follows: Selectivity interaction (KinomeScan (DiscoverX)) EUB0000045b ABL1. As to conditions: at 10 µM.
Experiment [9] concerns the target T2, Serine/threonine-protein kinase ULK2 (Homo sapiens) (UniProt Q8IYT8).
T2 sequence (whole entry): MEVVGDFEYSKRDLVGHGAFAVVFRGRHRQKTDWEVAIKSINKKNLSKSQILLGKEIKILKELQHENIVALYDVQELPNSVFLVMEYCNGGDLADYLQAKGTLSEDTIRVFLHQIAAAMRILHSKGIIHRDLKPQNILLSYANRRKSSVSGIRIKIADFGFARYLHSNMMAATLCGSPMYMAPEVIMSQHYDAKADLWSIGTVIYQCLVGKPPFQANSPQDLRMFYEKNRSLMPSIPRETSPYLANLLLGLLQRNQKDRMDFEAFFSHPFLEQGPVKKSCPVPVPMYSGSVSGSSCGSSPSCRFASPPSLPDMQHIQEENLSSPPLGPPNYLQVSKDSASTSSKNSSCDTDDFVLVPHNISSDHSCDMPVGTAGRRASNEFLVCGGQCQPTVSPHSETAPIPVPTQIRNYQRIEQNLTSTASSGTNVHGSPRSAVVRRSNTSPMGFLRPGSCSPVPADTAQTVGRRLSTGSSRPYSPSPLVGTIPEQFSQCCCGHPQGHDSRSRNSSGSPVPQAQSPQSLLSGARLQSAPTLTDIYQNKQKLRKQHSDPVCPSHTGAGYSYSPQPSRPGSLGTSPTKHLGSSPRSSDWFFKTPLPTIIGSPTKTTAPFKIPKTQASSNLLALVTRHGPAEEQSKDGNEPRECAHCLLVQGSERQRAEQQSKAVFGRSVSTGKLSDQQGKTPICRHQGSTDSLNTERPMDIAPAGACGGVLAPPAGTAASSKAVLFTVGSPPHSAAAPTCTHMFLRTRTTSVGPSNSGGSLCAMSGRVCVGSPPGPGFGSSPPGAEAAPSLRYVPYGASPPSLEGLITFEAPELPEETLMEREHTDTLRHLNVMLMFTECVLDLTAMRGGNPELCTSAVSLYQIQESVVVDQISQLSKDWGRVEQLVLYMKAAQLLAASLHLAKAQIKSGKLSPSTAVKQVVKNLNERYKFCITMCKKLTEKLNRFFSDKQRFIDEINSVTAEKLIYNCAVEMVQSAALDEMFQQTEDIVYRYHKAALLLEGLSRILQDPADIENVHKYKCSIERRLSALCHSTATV
Kind of experiment: Selectivity interaction (KinomeScan (DiscoverX)) EUB0000595a ULK2. The settings on record: at 10 µM.

Non-receptor tyrosine-protein kinase TYK2, sequence (P29597 whole entry): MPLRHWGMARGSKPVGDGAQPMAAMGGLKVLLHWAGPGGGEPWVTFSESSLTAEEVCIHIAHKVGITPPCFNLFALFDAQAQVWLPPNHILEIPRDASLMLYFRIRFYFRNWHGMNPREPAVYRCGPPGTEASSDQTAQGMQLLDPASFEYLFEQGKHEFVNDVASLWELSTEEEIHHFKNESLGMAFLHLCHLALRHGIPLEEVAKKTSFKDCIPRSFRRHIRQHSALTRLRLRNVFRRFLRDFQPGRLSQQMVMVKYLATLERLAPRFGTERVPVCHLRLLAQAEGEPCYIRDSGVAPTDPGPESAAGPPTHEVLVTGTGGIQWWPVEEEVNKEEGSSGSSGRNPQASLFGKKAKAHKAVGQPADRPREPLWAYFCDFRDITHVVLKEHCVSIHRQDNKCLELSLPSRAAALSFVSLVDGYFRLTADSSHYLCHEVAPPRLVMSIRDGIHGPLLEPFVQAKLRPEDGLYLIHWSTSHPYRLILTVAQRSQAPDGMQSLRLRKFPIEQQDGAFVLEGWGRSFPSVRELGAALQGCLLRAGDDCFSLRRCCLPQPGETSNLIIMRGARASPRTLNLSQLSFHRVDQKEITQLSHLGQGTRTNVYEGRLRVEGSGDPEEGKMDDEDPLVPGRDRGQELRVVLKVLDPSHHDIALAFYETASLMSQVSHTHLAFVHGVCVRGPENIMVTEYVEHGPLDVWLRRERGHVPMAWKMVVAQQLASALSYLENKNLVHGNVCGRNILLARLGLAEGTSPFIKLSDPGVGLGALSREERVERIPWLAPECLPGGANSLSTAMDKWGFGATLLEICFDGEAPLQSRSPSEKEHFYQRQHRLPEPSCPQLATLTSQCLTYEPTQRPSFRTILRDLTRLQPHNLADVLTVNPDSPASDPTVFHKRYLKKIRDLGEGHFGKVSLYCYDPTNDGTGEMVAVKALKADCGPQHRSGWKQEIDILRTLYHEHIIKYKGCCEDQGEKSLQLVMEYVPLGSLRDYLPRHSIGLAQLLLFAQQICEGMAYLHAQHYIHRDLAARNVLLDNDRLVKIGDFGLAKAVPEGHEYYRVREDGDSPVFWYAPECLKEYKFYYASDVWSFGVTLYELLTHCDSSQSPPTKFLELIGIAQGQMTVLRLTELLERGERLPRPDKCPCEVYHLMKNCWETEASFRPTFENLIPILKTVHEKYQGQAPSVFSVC
Tyrosine-protein kinase ABL1 (Homo sapiens), P00519 [F317I], sequence (P00519 whole entry F317I): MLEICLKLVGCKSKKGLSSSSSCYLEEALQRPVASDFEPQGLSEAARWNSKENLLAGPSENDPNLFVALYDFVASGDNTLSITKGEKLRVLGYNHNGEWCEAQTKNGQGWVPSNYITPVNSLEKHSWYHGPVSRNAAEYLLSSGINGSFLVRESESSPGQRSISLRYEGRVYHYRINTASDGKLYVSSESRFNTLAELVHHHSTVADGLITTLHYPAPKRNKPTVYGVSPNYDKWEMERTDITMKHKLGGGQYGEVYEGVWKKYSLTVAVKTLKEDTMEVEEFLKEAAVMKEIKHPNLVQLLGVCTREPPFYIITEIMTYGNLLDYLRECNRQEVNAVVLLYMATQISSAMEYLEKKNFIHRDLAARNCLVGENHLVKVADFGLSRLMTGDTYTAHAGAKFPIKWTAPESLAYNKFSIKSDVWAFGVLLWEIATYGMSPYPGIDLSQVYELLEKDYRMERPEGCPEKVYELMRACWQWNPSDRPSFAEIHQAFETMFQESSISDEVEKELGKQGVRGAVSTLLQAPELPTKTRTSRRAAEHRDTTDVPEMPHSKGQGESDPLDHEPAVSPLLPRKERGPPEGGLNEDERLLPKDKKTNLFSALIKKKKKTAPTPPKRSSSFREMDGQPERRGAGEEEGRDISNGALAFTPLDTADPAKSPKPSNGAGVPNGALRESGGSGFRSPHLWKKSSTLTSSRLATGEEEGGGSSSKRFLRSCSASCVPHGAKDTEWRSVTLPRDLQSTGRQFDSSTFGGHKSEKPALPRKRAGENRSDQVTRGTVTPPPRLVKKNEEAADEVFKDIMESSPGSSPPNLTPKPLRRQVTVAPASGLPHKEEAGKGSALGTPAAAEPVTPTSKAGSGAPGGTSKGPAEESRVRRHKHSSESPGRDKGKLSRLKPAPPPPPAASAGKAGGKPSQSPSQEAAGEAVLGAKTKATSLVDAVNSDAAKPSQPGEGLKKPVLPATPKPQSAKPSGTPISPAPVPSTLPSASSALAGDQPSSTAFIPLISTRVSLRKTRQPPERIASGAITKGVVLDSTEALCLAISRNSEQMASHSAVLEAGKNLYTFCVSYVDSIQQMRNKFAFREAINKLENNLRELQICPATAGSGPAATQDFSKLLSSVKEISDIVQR
Phosphatidylinositol 4,5-bisphosphate 3-kinase catalytic subunit gamma isoform (Homo sapiens), sequence (P48736 whole entry, looked up, canonical isoform): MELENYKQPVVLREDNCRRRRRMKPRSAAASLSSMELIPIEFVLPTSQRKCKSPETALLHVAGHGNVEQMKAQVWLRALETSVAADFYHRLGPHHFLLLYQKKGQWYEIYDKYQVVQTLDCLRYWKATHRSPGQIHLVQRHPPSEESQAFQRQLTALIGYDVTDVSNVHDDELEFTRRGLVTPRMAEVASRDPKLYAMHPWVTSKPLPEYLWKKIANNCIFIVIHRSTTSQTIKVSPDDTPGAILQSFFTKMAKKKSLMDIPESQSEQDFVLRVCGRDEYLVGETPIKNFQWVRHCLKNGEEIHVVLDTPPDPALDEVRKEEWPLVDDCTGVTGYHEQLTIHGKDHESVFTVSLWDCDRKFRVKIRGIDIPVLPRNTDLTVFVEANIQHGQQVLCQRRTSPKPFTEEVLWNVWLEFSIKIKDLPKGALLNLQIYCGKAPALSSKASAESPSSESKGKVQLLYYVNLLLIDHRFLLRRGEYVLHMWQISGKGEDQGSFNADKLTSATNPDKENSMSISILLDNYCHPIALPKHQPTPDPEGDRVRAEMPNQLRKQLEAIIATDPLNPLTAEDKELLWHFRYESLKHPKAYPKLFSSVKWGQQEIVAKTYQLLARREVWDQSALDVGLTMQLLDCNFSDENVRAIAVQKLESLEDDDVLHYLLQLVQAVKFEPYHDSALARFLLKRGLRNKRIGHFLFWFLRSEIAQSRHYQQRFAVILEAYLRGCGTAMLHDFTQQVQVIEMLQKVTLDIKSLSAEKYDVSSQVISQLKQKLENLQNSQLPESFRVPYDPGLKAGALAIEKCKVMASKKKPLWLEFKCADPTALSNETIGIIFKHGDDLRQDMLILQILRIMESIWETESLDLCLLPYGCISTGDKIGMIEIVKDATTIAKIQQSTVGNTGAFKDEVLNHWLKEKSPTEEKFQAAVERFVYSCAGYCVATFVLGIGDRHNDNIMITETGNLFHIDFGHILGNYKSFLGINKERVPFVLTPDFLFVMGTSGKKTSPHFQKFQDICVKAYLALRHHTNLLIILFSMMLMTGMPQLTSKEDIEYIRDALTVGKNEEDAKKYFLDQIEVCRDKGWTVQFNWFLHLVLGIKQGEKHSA
Fibroblast growth factor receptor 2 (Homo sapiens), sequence (P21802 22-821 limits assumed): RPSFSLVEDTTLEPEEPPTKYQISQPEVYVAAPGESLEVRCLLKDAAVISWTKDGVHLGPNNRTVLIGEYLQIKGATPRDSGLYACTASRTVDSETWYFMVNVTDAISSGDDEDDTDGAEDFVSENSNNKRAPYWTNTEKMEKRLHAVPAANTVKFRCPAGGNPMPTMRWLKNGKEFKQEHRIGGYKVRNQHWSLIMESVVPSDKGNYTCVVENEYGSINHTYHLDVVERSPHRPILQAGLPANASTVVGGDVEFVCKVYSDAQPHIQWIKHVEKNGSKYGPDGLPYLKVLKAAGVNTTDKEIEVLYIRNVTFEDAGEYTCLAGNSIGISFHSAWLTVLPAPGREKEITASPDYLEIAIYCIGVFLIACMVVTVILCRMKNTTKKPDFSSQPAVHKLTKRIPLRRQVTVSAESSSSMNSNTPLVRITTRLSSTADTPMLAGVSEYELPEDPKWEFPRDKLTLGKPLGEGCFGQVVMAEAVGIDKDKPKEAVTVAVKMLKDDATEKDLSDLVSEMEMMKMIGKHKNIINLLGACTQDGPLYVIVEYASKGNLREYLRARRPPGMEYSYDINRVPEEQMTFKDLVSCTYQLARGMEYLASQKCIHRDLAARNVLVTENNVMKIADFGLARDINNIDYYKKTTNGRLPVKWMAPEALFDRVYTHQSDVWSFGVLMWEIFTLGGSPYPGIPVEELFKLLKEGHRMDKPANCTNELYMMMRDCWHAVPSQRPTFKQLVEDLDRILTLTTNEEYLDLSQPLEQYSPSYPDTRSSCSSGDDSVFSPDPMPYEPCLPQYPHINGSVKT

`Cc1cc([C@@H](C)Nc2ccccc2C(=O)O)c2nc(N3CCOCC3)cc(=O)n2c1` [AZD-6482] returned an IC50 in experiment [1] of over 1000 µM.

On to `O=C(NOC[C@H](O)CO)c1ccc(F)c(F)c1Nc1ccc(I)cc1F`, for which the % of control in experiment [2] was determined as 88%.

For the compound `CC(C)(O)[C@H](F)CN1Cc2cc(NC(=O)c3cnn4cccnc34)c(N3CCOCC3)cc2C1=O`, the dTM in experiment [3] stood at 1 K.

As to `N#Cc1cccc(-c2c[nH]c3ncnc(N4CCOCC4)c23)c1`, the % of inhibition in experiment [4] is -2%.

With `COc1cc(Nc2nc(C)cc(-c3cnn4nc(OC)ccc34)n2)cc(C(F)(F)F)c1`, the % of control in experiment [5] and in experiment [6] was 100% throughout.

In the case of `C=CC(=O)Nc1cccc(C(=O)Nc2ccc(Nc3cc(-c4[nH]c(SC)nc4C)ccn3)cc2)c1`, the % of control was determined as 77% in experiment [7] (at 1 µM) and 46% in [7] (at 5 µM).

Take `C=CC(=O)Nc1cc(-n2c(=O)ccc3cnc4ccc(-c5ccc(NS(C)(=O)=O)cc5)cc4c32)ccc1C`: in experiment [8], the % of control stood at 100%.

As to `COCC(=O)NC/C=C/c1ccc2ncnc(Nc3ccc(Oc4ccc(C)nc4)c(C)c3)c2c1` [CP-724714], in experiment [9], the % of control worked out at 100%.
